Assay results reported in patent EP0306597B2, “Antiviral nucleosides” (THE WELLCOME FOUNDATION LIMITED, priority 1985, dated 1986).

Legend:
[1] = target: T1, AIDV reverse transcriptase (Human immunodeficiency virus type 1 group M subtype B, UniProt P04585); assay: Inhibition of purified AIDV reverse transcriptase; format: biochemical; details: purified enzyme; for activity of AIDV reverse transcriptase: in vitro
T1 construct: purified AIDV reverse transcriptase
Excerpt: This property is both unusual and valuable for the treatment and prophylaxis of CNS infections caused by human retroviruses.

human DNA polymerase = assay: Effect on human DNA polymerase activity; format: biochemical; details: in vitro
[2] = system: avian myeloblastosis virus and Moloney murine leukaemia virus; assay: Chain termination of reverse transcription; format: biochemical; details: evidenced by effect on avian myeloblastosis virus and Moloney murine leukaemia virus
AIDV [3] = assay: AIDV infection of H9 human lymphoblastoid cell-line; format: cell-based; details: concentrations as low as; up to 20 hours after infection
AIDV [4] = assay: AIDV infection of U937 cells, PHA-stimulated white blood cells and cultured peripheral blood lymphocytes; format: cell-based
AIDV [5] = format: cell-based
AIDV [6] = format: cell-based; details: same cell-line transformed by HTLV-I and super-infected with AIDV
[7] = system: Rauscher Murine Leukaemia Virus; assay: Mouse model of retrovirus-induced malignancy (splenomegaly); format: in vivo
HTLV-I = assay: In vitro replication of HTLV-I; format: cell-based; details: concentrations as low as
vaccinia = details: De Clerq et al.; cited from earlier work
HSVI = details: De Clerq et al.; cited from earlier work
[8] = system: varicella zoster virus (VZV); details: De Clerq et al.; cited from earlier work
[9] = system: Friend Leukaemia Virus (FLV); details: cited from earlier work

SMILES	mechanism of inhibition of AIDV reverse transcriptase [1]	activity of AIDV reverse transcriptase [1]	activity of AIDV reverse transcriptase ([1]; […])	effect on human DNA polymerase activity (human DNA polymerase)	chain termination in the reverse transcription of AIDV [2]	conversion in vivo by cellular enzymes	concentration effectively preventing infection of the H9 human lymphoblastoid cell-line by AIDV (AIDV [3]) [µg/mL]	AIDV infection of PHA-stimulated white blood cells (AIDV [4]; PHA-stimulated white blood cells)	AIDV infection of U937 human lymphoblastoid cells (AIDV [4]; U937 human lymphoblastoid cells)	AIDV infection of cultured peripheral blood lymphocytes (AIDV [4]; cultured peripheral blood lymphocytes)	decrease in cells (AIDV [5])	Cytopathic effects (AIDV [6])	splenomegaly caused by intravenously administered Rauscher Murine Leukaemia Virus [7]	concentration inhibiting the in vitro replication of HTLV-I (HTLV-I) [µg/mL]	activity against vaccinia (vaccinia)	activity against HSVI (HSVI)	activity against varicella zoster virus (VZV) [8]	cellular toxicity [9]	formation of A-type particles of FLV complex ([9]; in vitro, Krieg et al.)	release of C-type particles of FLV complex ([9]; in vitro, Krieg et al.)
Cc1cn([C@H]2C[C@H](N=[N+]=[N-])[C@@H](COP(=O)(O)OP(=O)(O)OP(=O)(O)O)O2)c(=O)[nH]c1=O [3'-Azido-3'-deoxythymidine-5'-triphosphate]	competitive inhibition	blocked	inhibits	negligible effect	effective chain terminator															
Cc1cn([C@H]2C[C@H](N=[N+]=[N-])[C@@H](COP(=O)(O)O)O2)c(=O)[nH]c1=O [Example 13]						further phosphorylated by other enzymes to form the triphosphate via the diphosphate														
Cc1cn([C@H]2C[C@H](N=[N+]=[N-])[C@@H](CO)O2)c(=O)[nH]c1=O						converted in vivo, by the action of cellular enzymes into the 5'-monophosphate	0.013	prevented at similarly low concentrations	prevented at similarly low concentrations	prevented at similarly low concentrations	no decrease	completely blocked	prevented	0.8	no appreciable activity	no appreciable activity	no appreciable activity	lack of cellular toxicity	increased	affected
